For one test, the system named is MOLM-13 cells. Put plainly: MOLM-13 Cellular Assay. It is filed as cell-based. The conditions noted are these: Homo sapiens, 72 hours, cell viability by CellTiter-Glo. The protocol:
MOLM-13 cells were obtained from DSMZ and were maintained in RPMI 1640+Glutamax+25 mM HEPES (Invitrogen, catalog number 72400) supplemented with 10% heat inactivated fetal bovine serum (FBS; Invitrogen, catalog number 16140). The day prior to assay set-up, cells were pelleted, resuspended in fresh media, counted, and cells were plated at 0.4×10^6 cell/mL in a T150 flask. On the day of the assay, cells were pelleted, resuspend in fresh media, counted, and seeded at 5,000 cells/well in white opaque 96-well tissue culture treated microplates (Perkin Elmer, catalog number 6005680). Cells were exposed to different concentrations of test compounds at 37° C., 5% CO2 for 72 hours immediately after seeding. Cell viability was acquired on a Perkin Elmer Envision 2104 multilabel reader using the CellTiter-Glo assay (Promega) according to the manufacturer's instructions.
(Cellular ATP, detected with luciferase, serves as a proxy for viable cell number.)

The target of another test is human DHODH (Homo sapiens (Human), UniProt Q02127). The test can be described thus: DHODH Enzymatic Assay. As to conditions: purified human DHODH, DCIP absorbance, end-point mode. It is filed as biochemical. Here is the method: To detect DHODH enzyme activities, dichloroindophenol (DCIP) is added as the final electron acceptor in the assay. DCIP can accept electrons from the reduced coenzyme Q generated in the assay, or from dihydroorotate (DHO) via FMN by binding presumably to the ubiquinone pocket. […] The assay buffer contained […], pH 7.5, 150 mM NaCl, 0.5 mM EDTA, and 0.1% Triton X-100 in MilliQ water. Substrate consisting of 20 mM DHO, 5 mM CoQ6, and 1 mM DCIP in assay buffer, initiates the reaction. […] Absorbance measurements were obtained using the BMG Phera Star plate-reading spectrophotomer. Purified human DHODH was purchased from Proteros (cat. No. PR-0044). Chemicals were purchased from Sigma-Aldrich, Teknova, and Avanti Polar Lipids. Liquid handling was performed using Labcyte Echo and Formulatrix Tempest.

pIC50: −log10 of the molar value. A value given as a limit tells only on which side of the number the result lay.

Sequence of human DHODH (Q02127 whole entry): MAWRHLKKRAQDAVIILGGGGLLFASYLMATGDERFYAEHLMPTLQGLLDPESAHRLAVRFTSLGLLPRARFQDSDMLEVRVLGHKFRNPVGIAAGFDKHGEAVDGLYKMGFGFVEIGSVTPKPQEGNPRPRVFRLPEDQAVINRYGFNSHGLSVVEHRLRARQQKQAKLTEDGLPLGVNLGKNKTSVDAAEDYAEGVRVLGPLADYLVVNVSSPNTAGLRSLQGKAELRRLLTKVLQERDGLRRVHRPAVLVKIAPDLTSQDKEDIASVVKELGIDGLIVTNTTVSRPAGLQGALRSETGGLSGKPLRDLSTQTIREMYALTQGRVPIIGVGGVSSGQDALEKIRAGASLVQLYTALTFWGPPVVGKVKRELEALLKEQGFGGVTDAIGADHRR

As to `CCn1c(CO)nn(-c2cc3c(cc2F)[C@H](O)[C@H](c2ccccc2C)CN3C(C)C)c1=O` (stereo in doubt) [Example 16, 4-Ethyl-2-((3R*,4R*)-6-fluoro-4-hydroxy-1-isopropyl-3-(o-tolyl)-1,2,3,4-tetrahydroquinolin-7-yl)-5-(hydroxymethyl)-2,4-dihydro-3H-1,2,4-triazol-3-one], the pIC50 was 8.70 in the test with MOLM-13 cells and 8.65 on human DHODH.
For the compound `CCn1c(CO)nn(-c2cc3c(cc2F)c(=O)c(-c2cc(C)ccc2F)cn3C(C)C)c1=O` [Example 9, 7-(4-Ethyl-3-(hydroxymethyl)-5-oxo-4,5-dihydro-1H-1,2,4-triazol-1-yl)-6-fluoro-3-(2-fluoro-5-methylphenyl)-1-isopropylquinolin-4(1H)-one], the pIC50 in the test with MOLM-13 cells is below 7.00; on human DHODH it was 7.24.

By pIC50 is commonly meant the IC50 on a negative log10 scale, so that one unit is a factor of ten.

The values above are taken from patent US20240166622A1, “FLUORINATED QUINOLINE, QUINOXALINE AND BENZO[B][1,4]OXAZINE DERIVATIVES AS DIHYDROOROTATE DEHYDROGENASE (DHODH) INHIBITORS FOR THE TREATMENT OF CANCER, AUTOIMMUNE AND INFLAMMATORY DISEASES” (Janssen Biotech, Inc., priority 2019, published 2024).
